Source: patent US12162874B2, “Peptidomimetic-based antibody surrogate for HER2” (University of South Florida, priority 2021, dated 2024)
Several values for one entry are separate records, joined by “and”; a condition that tells them apart may be missing. Equal values may be shown once. Entries after “also recorded” stand apart in the source; their conditions may differ.

Legend:
[1] = system: P-AKT; assay: Western blot of AKT phosphorylation in SKBR3 cells; format: cell-based
Description: (§1) SKBR3 cells were seeded into a 6-well plate at a concentration of 1×10^5 cells/well. After 12 h attachment at 37° C. and 5% CO2, the cells were starved overnight in serum-reduced McCoy's 5A Medium followed by treatment with different concentration of M-3-6 or M-3-6-D for 4 h, and then washed with ice-cold PBS and resuspended in ice-cold RIPA buffer supplemented with Halt Protease and Phosphatase Inhibitor Cocktail. Subsequently, the cells were incubated on ice for 10 min and centrifuged at 14,000×g at 4° C. for 10 min. An equal amount of protein was run on 4-12% Bis-Tris gels, transferred to polyvinylidene difluoride membranes (Millipore) and western blotted with anti-phosphorylated HER2, anti-phosphorylated AKT, anti-phosphorylated ERK and GAPDH. The experiments were conducted in triplicates and repeated for three times.

[2] = system: P-HER2; assay: Immunohistochemical staining of SKBR3 tumor sections; format: in vivo, mouse; details: tumors resected after sacrifice
Description: For the immunohistochemical analysis, the hydrated paraffin section was incubated in a blocking solution (10% donkey serum +5% nonfat dry milk +4% BSA +0.1% Triton X-100) for 10 min, and then incubated at 4° C. overnight with anti-P-HER2, P-AKT, P-ERK. After washing with PBS, the sections were incubated with diluted (1:200) biotinylated secondary antibody for 30 min. Subsequently, the sections were washed again in PBS and incubated for 30 min with the preformed avidin-horseradish peroxidase macromolecular complex. Development of peroxidase reaction was achieved by incubation in 0.01% 3, 3-diaminobenzidine tetrahydrochloride (DAB) in PBS containing 0.01% hydrogen peroxide for approximately 5 min at room temperature. Sections were then washed thoroughly in tap water, counterstained in haematoxylin, dehydrated in absolute alcohol, cleared in xylene and mounted in synthetic resin for microscopic examination.

[3] = i.p. every two days for two weeks
Description: SKBR3 cells were harvested, resuspended in PBS, and injected subcutaneously into 4-6 weeks old Male BALB/c nude mice. […] Mice were injected through the intraperitoneal every two days for seven injections.

[4] = target: EGFR (Homo sapiens, UniProt P00533); assay: Surface plasmon resonance (SPR) binding to EGFR (selectivity)
Description: Next, the binding affinity of both M-3-6 and M-3-6-D to HER2 ECD in vitro were measured by surface plasmon resonance (SPR) assay (FIG. 10 in supporting information). […]. In addition, EGFR, known as ERBB1, another member of the human epidermal growth factor receptor family was chosen to test the selectivity of M-3-6. […].
Binding kinetics of M-3-6 or M-3-6-D to HER2 was measured by surface plasmon resonance (OpenSPR, Nicoyalife). After HER2 was covalently coupled to the carboxyl sensor chips (Nicoyalife), M-3-6 or M-3-6-D in PBS running buffer (pH 7.4) was slowly flowed over the sensor chip for 5 min to allow interaction. The running buffer was then allowed to flow for 10 min to collect the dissociation data. After subtracting the background, the signal response vs. time curve was obtained, binding kinetic parameters were obtained by fitting the curve to a one-to-one binding model using Trace-Drawer (Nicoyalife) software.

[5] = system: P-HER2; assay: Western blot of HER2 phosphorylation in SKBR3 cells; format: cell-based, human; details: for inhibition of HER2 phosphorylation (in words): SKBR3 cell lysates, western blot; for expression of P-HER2: 10 μM
Description: as §1

[6] = system: SKBR3 cells; assay: Inhibition of EGF-induced cell proliferation (CCK-8); format: cell-based; details: SKBR3, EGF 100 ng/mL
Description: SKBR3 cells were cultured in McCoy's 5A Medium (Gibco) medium containing 10% fetal bovine serum and 1% penicillin/streptomycin in an atmosphere of 5% CO2 at 37° C.
SKBR3 cells in good condition were seeded into a 96-well plate at a concentration of 1×10^3 cells/well in 100 μL of complete growth medium. After 24 hours of attachment at 37° C. and 5% CO2, medium was replaced by fresh serum reduced McCoy's 5A Medium and cell were serum-starved overnight. Then serum-reduced EGF (100 ng/mL) McCoy's 5A Medium in the presence of different concentration of M-3-6 and M-3-6-D was added to the cells in hexaplicate. After 72 h, the CCK-8 reagents were added according to the manufacturer's recommendations.

[7] = system: SKBR3 tumor xenograft; assay: Antitumor study in SKBR3 xenograft nude mice, tumor volume; format: in vivo, mouse; details: for tumor volume after the last drug injection on day 12: after end of dosing, until day 24
Description: Male BALB/c nude mice, 4-6 weeks old, were provided by the Shanghai Bikai Experimental Animal Center, with the license number SOXK (Hu) 2008-0016, and maintained under specific-pathogen-free conditions.
SKBR3 cells were harvested, resuspended in PBS, and injected subcutaneously into 4-6 weeks old Male BALB/c nude mice. […] Mice were injected through the intraperitoneal every two days for seven injections. 12 days after injection, the mice in each group were killed, and the tumors were removed for examination. The tumor volumes were determined by measuring length (1) and width (w) and calculating volume (V=lw^2/2).

[8] = system: P-ERK; assay: Western blot of ERK phosphorylation in SKBR3 cells; format: cell-based; details: for phosphorylation of ERK (in words): SKBR3 cell lysates, western blot
Description: as §1

[9] = target: T1, HER2 (Homo sapiens, UniProt P04626); assay: Fluorescence polarization (FP) binding assay; details: 50 nM FITC labeled AApeptide, HER2 0 to 2 μM in PBS
T1 construct: Fc (human IgG Fc); purchased Creative BioMart
Description: The FP experiment was performed by incubating 50 nM FITC labeled AApeptides with HER2 (0 to 2 μM) in PBS. Dissociation constants (Kd) was determined by plotting the fluorescence anisotropy values as a function of protein concentration, and the plots were fitted to the following equation. The Lst is the concentration of the AApeptides and the x stands for the concentration of the protein. The experiments were conducted in triplicates and repeated for three times. y=FPmin+(FPmax−FPmin)*(KD+Lst+x-sqrt((KD+Lst+x)^2−4*Lst*x))/(2*Lst)

[10] = target: T2, HER2 ECD (Homo sapiens, UniProt P04626); assay: Surface plasmon resonance (SPR) binding to HER2
T2 construct: Fc (human IgG Fc); purchased Creative BioMart

[11] = system: pronase; details: 0.1 mg/mL pronase, 100 mM ammonium bicarbonate buffer, 37° C., 24 h
Description: Then, the reaction mixtures were concentrated in a speed vacuum to remove water and ammonium bicarbonate. The resulting residues were re-dissolved in H2O/MeCN and analyzed on a Waters analytical HPLC system.

[12] = 8 mg/kg i.p. every two days for two weeks

T1 sequence (P04626 23-652): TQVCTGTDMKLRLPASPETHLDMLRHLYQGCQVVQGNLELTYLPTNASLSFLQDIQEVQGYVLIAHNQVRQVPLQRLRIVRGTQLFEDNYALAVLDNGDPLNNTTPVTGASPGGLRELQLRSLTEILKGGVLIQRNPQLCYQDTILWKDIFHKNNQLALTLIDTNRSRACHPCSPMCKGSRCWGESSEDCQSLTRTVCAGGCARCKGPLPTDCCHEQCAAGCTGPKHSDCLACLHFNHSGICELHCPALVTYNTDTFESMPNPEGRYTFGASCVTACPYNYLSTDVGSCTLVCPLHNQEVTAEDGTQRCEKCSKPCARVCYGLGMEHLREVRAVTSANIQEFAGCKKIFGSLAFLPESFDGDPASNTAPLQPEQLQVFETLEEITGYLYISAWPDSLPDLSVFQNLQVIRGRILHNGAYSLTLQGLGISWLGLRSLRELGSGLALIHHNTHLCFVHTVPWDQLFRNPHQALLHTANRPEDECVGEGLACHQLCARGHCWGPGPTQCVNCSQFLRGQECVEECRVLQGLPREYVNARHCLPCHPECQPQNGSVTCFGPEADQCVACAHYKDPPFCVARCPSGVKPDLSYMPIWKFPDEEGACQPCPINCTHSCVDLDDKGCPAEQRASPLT
T2 sequence (P04626 23-652): as above
EGFR, sequence (P00533 25-1210): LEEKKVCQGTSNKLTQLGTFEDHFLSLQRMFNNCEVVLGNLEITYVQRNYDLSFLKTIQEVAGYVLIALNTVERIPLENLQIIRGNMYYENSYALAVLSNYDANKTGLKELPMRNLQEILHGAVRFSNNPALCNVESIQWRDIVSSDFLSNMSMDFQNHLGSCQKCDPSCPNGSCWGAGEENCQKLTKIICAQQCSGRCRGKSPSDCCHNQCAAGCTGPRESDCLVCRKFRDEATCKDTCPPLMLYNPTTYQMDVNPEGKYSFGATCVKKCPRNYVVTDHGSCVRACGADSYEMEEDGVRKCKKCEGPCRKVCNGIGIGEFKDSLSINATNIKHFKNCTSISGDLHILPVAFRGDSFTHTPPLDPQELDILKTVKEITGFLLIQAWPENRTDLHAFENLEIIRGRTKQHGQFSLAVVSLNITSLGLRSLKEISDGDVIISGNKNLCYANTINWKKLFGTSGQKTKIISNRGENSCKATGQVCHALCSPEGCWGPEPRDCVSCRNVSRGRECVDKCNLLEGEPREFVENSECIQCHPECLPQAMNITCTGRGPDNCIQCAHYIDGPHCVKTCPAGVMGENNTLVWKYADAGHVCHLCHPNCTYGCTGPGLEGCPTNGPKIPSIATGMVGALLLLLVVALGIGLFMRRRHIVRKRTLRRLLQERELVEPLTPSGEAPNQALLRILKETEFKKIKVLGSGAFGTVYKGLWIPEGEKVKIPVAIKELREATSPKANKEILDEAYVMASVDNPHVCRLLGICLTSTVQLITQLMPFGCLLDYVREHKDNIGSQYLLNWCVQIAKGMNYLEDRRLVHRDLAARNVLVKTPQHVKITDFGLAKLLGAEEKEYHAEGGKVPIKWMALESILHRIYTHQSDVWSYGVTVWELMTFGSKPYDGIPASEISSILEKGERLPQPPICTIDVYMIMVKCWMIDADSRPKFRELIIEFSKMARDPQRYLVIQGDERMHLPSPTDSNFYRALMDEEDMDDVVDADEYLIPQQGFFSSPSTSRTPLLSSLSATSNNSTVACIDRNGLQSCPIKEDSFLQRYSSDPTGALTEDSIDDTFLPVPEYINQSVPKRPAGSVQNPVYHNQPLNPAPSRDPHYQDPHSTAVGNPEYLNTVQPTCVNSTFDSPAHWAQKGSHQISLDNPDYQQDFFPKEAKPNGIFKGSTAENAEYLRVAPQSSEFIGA

| SMILES | phosphorylation of AKT (in words) ([1]; SKBR3 cell lysates, western blot) | IC50 ([1]; SKBR3 cells, 4 h) | phosphorylation level of HER2 in tumor sections [2] | effect on body weight gain [3] | weaker binding to EGFR than to HER2 [4] | inhibition of HER2 phosphorylation (in words) [5] | IC50 ([5]; SKBR3 cells, 0-30 μM, 4 h, read-out: IC50 inhibition of HER2 phosphorylation) | expression of P-HER2 ([5]; SKBR3 cells, 4 h) | inhibition of EGF-induced proliferation (in words) [6] | IC50 ([6]; serum-reduced, 72 h, read-out: IC50 antiproliferative activity on EGF-stimulated cells) | tumor volume / antitumor effect [7, 12] | tumor volume / antitumor effect ([7]; 32 mg/kg i.p. every two days for two weeks) | tumor volume after the last drug injection on day 12 [7] | phosphorylation of ERK (in words) [8] | IC50 ([8]; SKBR3 cells, 4 h) | Kd [9] | improvement of binding to HER2 compared with monomer M-3-6 [10] | degradation by pronase monitored by HPLC [11] |
| --- | --- | --- | --- | --- | --- | --- | --- | --- | --- | --- | --- | --- | --- | --- | --- | --- | --- | --- |
| COc1cc(CC(=O)N2CC(=O)N[C@@H](Cc3ccccc3)CN(C(=O)Cc3ccc4ccccc4c3)CC(=O)N[C@@H](CCCCN)CN(C(=O)Cc3ccc4c(c3)OCO4)CC(=O)N[C@@H](CCCCN)CN(CC(N)=O)C(=O)CCSCc3ccc(cc3)C(=O)N[C@@H](CC(C)C)C2)cc(OC)c1 [M-3-6] | reduction in the phosphorylation of AKT and ERK | 16.9 µM | modest inhibitory effect | ignorable effect on the body weight gain | 10 fold | dose-dependent inhibition of HER2 receptor phosphorylation | 12.9 µM | relatively high | inhibited EGF-induced proliferation significantly in a dose-dependent manner | 17.9 µM | no significant reduction in tumor volume | much more improved antitumor effect | significant tumor growth | reduction in the phosphorylation of AKT and ERK | 10.6 µM |  |  |  |
| COc1cc(CC(=O)N2CC(=O)N[C@@H](Cc3ccccc3)CN(C(=O)Cc3ccc4ccccc4c3)CC(=O)N[C@@H](CCCCN)CN(C(=O)Cc3ccc4c(c3)OCO4)CC(=O)N[C@@H](CCCCN)CN(CC(=O)NCCC(=O)NC(CCCCNC(=S)Nc3ccc(-c4c5ccc(=O)cc-5oc5cc(O)ccc45)c(C(=O)O)c3)C(N)=O)C(=O)CCSCc3ccc(cc3)C(=O)N[C@@H](CC(C)C)C2)cc(OC)c1 (some centres unmarked) [M-3-6-F] |  |  |  |  |  |  |  |  |  |  |  |  |  |  |  | 0.28 µM and 0.278 µM |  |  |
| COc1cc(CC(=O)N2CC(=O)N[C@@H](Cc3ccccc3)CN(C(=O)Cc3ccc4ccccc4c3)CC(=O)N[C@@H](CCCCN)CN(C(=O)Cc3ccc4c(c3)OCO4)CC(=O)N[C@@H](CCCCN)CN(CC(=O)N[C@@H](CCCCNC(=O)COCCOCCNC(=O)Cn3cc(COc4cc(OCc5cn(CC(=O)NCCOCCOCC(=O)NCCCC[C@H](NC(=O)CN6C[C@H](CCCCN)NC(=O)CN(C(=O)Cc7ccc8c(c7)OCO8)C[C@H](CCCCN)NC(=O)CN(C(=O)Cc7ccc8ccccc8c7)C[C@H](Cc7ccccc7)NC(=O)CN(C(=O)Cc7cc(OC)cc(OC)c7)C[C@H](CC(C)C)NC(=O)c7ccc(cc7)CSCCC6=O)C(N)=O)nn5)cc(C(=O)NCCNC(=O)OC(C)(C)C)c4)nn3)C(N)=O)C(=O)CCSCc3ccc(cc3)C(=O)N[C@@H](CC(C)C)C2)cc(OC)c1 [M-3-6-D] |  |  | comparable efficiency with trastuzumab | ignorable effect on the body weight gain |  | even stronger inhibition of phosphorylation than M-3-6; also recorded: much more effective phosphorylation inhibition compared with M-3-6 |  | almost complete blocked | inhibited EGF-induced proliferation significantly in a dose-dependent manner |  | significantly inhibit the tumor growth; also recorded: significant antitumor effect |  | significant reduction in tumor volume was still observed | more pronounced effect on the suppression of P-ERK compared with P-AKT |  |  | ~7 fold | no detectable degradation |
